# Measured values: ChEMBL document CHEMBL4028852, “Design of a Chemical Probe for the Bromodomain and Plant Homeodomain Finger-Containing (BRPF) Family of Proteins” (J Med Chem, 2017)
# What was measured:
# [1] = target: T1, Transcription intermediary factor 1-alpha (Homo sapiens, UniProt O15164); experiment: Inhibition of TRIM24 (unknown origin) using tetra-acetylated histone 4/ mono-acetylated K14 histone 3 as substrate after 30 mins by alphascreen assay
# T1 sequence (O15164 whole entry): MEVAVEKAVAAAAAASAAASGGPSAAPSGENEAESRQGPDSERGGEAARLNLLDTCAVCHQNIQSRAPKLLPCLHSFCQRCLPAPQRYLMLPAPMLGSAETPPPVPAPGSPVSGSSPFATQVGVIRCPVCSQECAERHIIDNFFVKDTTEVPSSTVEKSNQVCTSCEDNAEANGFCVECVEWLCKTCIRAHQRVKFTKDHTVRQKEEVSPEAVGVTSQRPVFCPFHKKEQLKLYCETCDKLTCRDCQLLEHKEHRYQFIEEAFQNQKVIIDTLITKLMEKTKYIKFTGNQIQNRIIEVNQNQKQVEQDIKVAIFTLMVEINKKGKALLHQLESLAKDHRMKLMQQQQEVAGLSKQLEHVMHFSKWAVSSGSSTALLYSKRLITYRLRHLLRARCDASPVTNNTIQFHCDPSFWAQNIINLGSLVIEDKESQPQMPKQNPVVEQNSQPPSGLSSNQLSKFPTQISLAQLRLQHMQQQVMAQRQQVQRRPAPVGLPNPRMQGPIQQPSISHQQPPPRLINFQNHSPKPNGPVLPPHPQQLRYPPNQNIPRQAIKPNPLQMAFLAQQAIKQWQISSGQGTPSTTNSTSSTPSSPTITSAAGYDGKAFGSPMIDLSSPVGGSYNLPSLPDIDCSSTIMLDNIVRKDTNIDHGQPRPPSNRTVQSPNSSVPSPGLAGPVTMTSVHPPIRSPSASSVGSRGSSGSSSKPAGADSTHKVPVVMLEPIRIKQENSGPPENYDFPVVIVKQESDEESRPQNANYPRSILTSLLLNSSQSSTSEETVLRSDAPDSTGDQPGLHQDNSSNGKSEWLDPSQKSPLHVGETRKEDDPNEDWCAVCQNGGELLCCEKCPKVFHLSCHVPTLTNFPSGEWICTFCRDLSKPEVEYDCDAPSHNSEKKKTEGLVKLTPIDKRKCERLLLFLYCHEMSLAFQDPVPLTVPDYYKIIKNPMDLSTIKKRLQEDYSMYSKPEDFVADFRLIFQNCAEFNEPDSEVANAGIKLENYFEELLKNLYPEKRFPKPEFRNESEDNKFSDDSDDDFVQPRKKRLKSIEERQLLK
# [2] = target: T2, Peregrin (Homo sapiens, UniProt P55201); experiment: Inhibition of BRPF1B (unknown origin) binding to histone H3.3 by nonoBRET assay
# T2 sequence (P55201 whole entry): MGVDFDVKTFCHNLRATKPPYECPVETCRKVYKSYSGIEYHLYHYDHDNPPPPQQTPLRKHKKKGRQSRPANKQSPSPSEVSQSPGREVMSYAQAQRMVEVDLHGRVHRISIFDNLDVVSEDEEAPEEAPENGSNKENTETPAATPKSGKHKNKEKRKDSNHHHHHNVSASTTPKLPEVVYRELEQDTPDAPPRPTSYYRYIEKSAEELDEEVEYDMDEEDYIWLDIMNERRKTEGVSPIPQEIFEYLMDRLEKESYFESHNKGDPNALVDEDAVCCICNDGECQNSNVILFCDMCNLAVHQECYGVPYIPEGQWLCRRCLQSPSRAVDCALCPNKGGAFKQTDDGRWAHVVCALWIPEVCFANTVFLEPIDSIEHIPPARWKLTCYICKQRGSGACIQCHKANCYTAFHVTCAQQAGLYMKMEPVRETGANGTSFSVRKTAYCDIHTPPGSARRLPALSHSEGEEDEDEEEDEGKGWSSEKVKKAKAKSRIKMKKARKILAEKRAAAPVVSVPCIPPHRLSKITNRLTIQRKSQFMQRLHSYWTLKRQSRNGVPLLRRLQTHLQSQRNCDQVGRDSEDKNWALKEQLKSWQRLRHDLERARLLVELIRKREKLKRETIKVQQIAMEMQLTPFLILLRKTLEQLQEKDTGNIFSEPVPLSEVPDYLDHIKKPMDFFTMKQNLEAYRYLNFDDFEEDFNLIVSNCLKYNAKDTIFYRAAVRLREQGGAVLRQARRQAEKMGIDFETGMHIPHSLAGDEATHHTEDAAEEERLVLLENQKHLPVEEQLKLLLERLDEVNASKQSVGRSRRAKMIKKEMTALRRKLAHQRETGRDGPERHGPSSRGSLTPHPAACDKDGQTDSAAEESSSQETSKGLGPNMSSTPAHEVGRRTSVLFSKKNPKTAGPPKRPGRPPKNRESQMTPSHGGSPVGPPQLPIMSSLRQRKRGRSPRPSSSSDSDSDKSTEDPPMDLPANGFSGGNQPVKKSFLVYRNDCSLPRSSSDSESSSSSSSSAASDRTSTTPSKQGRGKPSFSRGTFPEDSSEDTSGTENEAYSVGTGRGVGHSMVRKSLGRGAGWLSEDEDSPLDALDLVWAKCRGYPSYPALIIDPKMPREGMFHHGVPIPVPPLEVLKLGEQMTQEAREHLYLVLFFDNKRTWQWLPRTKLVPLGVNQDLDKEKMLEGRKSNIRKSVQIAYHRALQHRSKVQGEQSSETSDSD
# [3] = target: Nav1.5 (Homo sapiens, UniProt Q14524); experiment: Inhibition of Nav1.5 (unknown origin) at 30 uM
# [4] = target: Cav1.2 (Homo sapiens, UniProt Q13936); experiment: Inhibition of Cav1.2 (unknown origin) at 30 uM
# Sequence of Cav1.2 (Q13936 whole entry): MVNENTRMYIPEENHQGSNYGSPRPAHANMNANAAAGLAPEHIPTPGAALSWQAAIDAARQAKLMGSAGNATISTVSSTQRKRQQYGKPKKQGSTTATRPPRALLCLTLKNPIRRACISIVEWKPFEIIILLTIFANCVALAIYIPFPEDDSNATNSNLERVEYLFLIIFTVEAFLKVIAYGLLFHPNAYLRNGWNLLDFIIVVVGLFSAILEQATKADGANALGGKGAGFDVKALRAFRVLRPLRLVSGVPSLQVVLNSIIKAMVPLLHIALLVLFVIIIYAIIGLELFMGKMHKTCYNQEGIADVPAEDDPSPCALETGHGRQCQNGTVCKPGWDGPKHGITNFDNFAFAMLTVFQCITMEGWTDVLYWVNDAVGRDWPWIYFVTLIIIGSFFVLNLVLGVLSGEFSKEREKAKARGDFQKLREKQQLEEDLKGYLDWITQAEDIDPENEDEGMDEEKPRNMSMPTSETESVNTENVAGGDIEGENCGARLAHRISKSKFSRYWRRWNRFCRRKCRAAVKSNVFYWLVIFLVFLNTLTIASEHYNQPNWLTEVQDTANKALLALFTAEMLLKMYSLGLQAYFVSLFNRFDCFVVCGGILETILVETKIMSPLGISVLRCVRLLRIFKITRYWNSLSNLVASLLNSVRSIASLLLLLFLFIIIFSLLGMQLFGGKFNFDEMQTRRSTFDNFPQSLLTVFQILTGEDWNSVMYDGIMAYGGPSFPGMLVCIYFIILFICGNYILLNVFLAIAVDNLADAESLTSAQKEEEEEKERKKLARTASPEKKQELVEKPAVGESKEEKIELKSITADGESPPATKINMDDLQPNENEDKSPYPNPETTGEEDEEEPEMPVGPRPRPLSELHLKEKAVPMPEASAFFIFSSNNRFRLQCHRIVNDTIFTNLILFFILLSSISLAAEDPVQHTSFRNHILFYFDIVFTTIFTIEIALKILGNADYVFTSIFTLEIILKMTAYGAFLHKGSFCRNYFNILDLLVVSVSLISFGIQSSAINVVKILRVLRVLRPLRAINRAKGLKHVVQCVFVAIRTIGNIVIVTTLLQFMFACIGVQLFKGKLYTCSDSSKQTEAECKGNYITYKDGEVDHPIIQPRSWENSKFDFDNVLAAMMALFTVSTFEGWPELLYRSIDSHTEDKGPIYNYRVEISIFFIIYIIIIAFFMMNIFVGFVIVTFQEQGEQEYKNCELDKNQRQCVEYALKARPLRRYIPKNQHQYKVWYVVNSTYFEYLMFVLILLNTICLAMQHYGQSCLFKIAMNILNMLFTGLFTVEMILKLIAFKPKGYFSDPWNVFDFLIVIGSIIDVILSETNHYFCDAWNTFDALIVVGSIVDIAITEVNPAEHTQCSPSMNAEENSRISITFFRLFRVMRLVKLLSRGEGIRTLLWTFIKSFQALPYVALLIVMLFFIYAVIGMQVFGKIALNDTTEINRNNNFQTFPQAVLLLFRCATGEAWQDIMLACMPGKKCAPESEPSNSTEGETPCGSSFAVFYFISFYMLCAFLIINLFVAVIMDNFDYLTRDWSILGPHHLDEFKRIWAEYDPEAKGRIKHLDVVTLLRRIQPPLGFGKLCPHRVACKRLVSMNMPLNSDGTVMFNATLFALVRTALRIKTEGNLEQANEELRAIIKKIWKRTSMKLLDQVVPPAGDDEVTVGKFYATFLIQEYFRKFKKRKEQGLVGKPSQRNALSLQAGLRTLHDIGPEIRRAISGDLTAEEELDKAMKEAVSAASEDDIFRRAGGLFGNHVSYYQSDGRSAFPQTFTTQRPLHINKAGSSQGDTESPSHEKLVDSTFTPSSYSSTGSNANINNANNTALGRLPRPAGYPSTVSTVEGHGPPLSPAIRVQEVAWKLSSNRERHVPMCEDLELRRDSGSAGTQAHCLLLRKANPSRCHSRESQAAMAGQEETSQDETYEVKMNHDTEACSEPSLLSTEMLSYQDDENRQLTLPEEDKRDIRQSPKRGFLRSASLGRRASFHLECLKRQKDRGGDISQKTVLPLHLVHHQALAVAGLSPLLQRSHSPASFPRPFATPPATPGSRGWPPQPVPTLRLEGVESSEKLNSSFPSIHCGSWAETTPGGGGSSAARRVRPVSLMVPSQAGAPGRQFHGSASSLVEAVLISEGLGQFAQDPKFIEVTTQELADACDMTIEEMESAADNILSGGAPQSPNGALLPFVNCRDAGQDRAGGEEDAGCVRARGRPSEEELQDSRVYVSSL
# Sequence of Nav1.5 (Q14524 whole entry): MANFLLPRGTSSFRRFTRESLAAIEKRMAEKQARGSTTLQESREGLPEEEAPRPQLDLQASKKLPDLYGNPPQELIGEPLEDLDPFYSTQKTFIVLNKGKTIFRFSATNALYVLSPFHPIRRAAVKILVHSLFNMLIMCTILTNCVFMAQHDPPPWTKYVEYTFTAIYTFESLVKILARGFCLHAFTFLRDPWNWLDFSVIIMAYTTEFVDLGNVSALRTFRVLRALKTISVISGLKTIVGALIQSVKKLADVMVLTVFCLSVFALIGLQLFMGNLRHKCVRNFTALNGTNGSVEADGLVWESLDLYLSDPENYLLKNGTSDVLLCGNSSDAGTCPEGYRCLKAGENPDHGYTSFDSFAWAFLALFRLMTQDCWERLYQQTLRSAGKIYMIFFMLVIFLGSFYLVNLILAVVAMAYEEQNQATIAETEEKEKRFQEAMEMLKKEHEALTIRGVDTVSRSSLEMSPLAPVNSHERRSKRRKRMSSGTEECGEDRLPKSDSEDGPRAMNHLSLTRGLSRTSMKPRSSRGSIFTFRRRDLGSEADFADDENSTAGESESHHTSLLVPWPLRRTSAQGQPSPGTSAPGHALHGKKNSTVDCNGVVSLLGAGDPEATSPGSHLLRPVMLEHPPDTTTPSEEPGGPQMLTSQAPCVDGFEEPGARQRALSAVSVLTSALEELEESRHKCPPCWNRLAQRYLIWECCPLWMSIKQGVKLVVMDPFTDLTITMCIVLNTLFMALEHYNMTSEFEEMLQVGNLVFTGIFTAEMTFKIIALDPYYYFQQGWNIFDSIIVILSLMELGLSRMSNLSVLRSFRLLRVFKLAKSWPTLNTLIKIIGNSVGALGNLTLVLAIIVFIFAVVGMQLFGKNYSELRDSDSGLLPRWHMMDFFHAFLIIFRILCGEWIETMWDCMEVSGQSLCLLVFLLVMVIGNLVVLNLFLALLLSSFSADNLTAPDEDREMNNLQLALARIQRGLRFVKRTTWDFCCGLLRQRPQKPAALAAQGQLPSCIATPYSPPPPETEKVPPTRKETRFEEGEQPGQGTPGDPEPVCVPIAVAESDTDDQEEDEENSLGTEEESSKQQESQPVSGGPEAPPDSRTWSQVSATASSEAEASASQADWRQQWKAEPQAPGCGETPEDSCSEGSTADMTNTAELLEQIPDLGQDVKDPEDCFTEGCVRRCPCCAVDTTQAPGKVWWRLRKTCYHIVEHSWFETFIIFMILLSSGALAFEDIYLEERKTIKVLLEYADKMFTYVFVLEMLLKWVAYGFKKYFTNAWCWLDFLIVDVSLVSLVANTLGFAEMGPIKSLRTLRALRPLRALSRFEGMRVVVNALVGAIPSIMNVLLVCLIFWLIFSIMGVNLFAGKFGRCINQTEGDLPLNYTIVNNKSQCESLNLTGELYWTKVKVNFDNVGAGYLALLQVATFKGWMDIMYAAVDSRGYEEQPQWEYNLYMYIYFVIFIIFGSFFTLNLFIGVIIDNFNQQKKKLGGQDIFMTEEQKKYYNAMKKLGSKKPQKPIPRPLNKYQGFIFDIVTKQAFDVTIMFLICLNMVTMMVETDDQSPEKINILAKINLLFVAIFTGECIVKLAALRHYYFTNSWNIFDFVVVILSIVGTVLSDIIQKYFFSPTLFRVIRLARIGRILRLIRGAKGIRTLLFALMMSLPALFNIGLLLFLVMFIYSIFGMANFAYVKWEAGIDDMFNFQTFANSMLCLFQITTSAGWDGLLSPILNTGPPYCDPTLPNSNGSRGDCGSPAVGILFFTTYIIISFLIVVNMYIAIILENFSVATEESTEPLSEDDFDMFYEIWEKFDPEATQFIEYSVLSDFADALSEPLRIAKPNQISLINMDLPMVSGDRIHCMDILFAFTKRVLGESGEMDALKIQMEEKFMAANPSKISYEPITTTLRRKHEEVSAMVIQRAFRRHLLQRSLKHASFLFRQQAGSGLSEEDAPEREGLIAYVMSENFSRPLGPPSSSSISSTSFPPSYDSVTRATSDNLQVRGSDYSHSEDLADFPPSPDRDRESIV
smiles,measurement,setting,value
COc1cc(C#N)ccc1S(=O)(=O)Nc1ccc2c(c1)cc(C)c(=O)n2C,IC50,[1],> 10 µM
same,IC50,[2],0.07 µM
same,inhibition at 30 µM,[3],< 40%
same,inhibition at 30 µM,[4],< 40%
